{"source": "patent US7144551B2", "about": "“Mold remediation system and method” (DH Technologies, L.L.P., priority 2002, dated 2006)", "key": {"[1]": {"conditions": "cited from earlier work"}, "mold": {"system": "mold", "assay": "Mold remediation study: vapor from acidified 600 ppm NaOCl in a closed 1400 cc container", "format": "cell-based", "conditions": "10 ml acidified 600 ppm NaOCl in 1400 cc; all NaOCl assumed converted to HOCl", "method": "For purposes of the calculation which now follows, it is assumed that essentially all of the NaOCl is converted to HOCl when acidified, which is a valid assumption given the equilibrium of the reaction. For mold remediation studies, 10 ml of acidified 600 ppm NaOCl was placed in a container with a volume of 1400 cc. • 10 ml of 600 ppm NaOCl=0.00600 g NaOCl/10 ml • 0.00600 g NaOCl=(0.00600 g NaOCl)(52.5 g HOCl)/(74.5 g NaOCl)=0.00423 g HOCl This quantity is diluted to 1400 cc. Therefore, the maximum concentration of HOCl gas in the container studied is: • 0.00423 g/1400 cc=3.02×10^−6 g HOCl/cc. […] Thus, we have discovered that by converting the NaOCl to HOCl and using it in the form of a gas the concentration needed for mold cidal activity is at least about 47 times less than is recommended for sanitation in the liquid form of hypochlorite bleach! We next investigated the removal of mold stain from surfaces."}, "mold and mold stains": {"system": "mold and mold stains", "assay": "Mold kill and mold stain removal study: vapor from acidified 6.0% NaOCl diluted in water, in a 1400 cc container", "format": "cell-based", "conditions": "5 mL 6.0% NaOCl + 50 mL water, in 1400 cc", "method": "First, the recommended concentration of HOCl for sanitization of surfaces according to the prior art is calculated. Referring to the label of Ultra Chlorox® brand of sodium hypochlorite and noticing that a recommended concentration of NaOCl for mold and mildew stain removal is 3⁄4 cup Ultra Chlorox® plus one gallon of water. Ultra Chlorox® contains 6.00% NaOCl per the label. […] For the mold remediation studies, 5 mL of 6.0% NaOCl was mixed with 50 mL of water, acidified and was placed in a container with a volume of 1400 cc. • 5 mL of 6.0% NaOCl=0.30 g NaOCl • Assuming all of the NaOCl is converted to HOCl: • 0.30 g NaOCl=(0.30 g NaOCl)(52.5 g HOCl)/(74.5 g NaOCl)=0.21 g HOCl This quantity of HOCl is diluted to 1400 cc. Therefore, the maximum concentration of HOCl gas in the container studied is: • 0.21 g HOCl/1400 cc=15×10^-5 g HOCl/cc […]"}, "germs on surfaces [2]": {"system": "germs on surfaces", "assay": "Label-recommended hypochlorite concentration for sanitization of surfaces (Ultra Clorox label)"}, "mold and mildew stain": {"system": "mold and mildew stain", "assay": "Label-recommended hypochlorite concentration for mold and mildew stain removal (Ultra Chlorox label)", "method": "First, the recommended concentration of HOCl for sanitization of surfaces according to the prior art is calculated. Referring to the label of Ultra Chlorox® brand of sodium hypochlorite and noticing that a recommended concentration of NaOCl for mold and mildew stain removal is 3⁄4 cup Ultra Chlorox® plus one gallon of water. Ultra Chlorox® contains 6.00% NaOCl per the label. […] For the mold remediation studies, 5 mL of 6.0% NaOCl was mixed with 50 mL of water, acidified and was placed in a container with a volume of 1400 cc. • 5 mL of 6.0% NaOCl=0.30 g NaOCl • Assuming all of the NaOCl is converted to HOCl: • 0.30 g NaOCl=(0.30 g NaOCl)(52.5 g HOCl)/(74.5 g NaOCl)=0.21 g HOCl This quantity of HOCl is diluted to 1400 cc. Therefore, the maximum concentration of HOCl gas in the container studied is: • 0.21 g HOCl/1400 cc=15×10^-5 g HOCl/cc"}, "mold colonies": {"system": "mold colonies", "assay": "Cidal action of controlled hypochlorous acid vapor on mold colonies (general statements)", "format": "cell-based"}, "germs on surfaces [3]": {"system": "germs on surfaces", "conditions": "cited from earlier work"}}, "note": "Like-named read-outs stand apart in the source and are kept apart here.", "data": [{"compound": "hypochlorite ion [OCl—]", "values": [{"measurement": "% as OCl—", "setting": "[1]; pH 5.0", "result": 0, "unit": "%"}, {"measurement": "% as OCl—", "setting": "[1]; pH 6.0", "result": 4, "unit": "%"}, {"measurement": "% as OCl—", "setting": "[1]; pH 7.0", "result": 28, "unit": "%"}, {"measurement": "% as OCl—", "setting": "[1]; pH 7.2", "result": 34, "unit": "%"}, {"measurement": "% as OCl—", "setting": "[1]; pH 7.5", "result": 52, "unit": "%"}, {"measurement": "% as OCl—", "setting": "[1]; pH 7.8", "result": 67, "unit": "%"}, {"measurement": "% as OCl—", "setting": "[1]; pH 8.0", "result": 78, "unit": "%"}]}, {"compound": "OCl", "note": "[hypochlorous acid]", "values": [{"measurement": "maximum concentration of HOCl gas in the container found to kill mold", "setting": "mold", "result": "3.02×10^−6 g HOCl/cc"}, {"measurement": "maximum concentration of HOCl gas in the container found to kill mold and remove stains", "setting": "mold and mold stains", "result": "15×10^−5 g HOCl/cc"}, {"measurement": "equivalent concentration of HOCl necessary to sanitize per manufacturer recommendation", "setting": "germs on surfaces [2]; calculated from 200 ppm NaOCl, liquid", "result": "1.41×10^−4 g HOCL/cc"}, {"measurement": "Conc. of HOCl equivalent to the recommended stain removal solution", "setting": "mold and mildew stain; all NaOCl assumed converted to HOCl", "result": 0.0019, "unit": "g HOCl/cc"}, {"measurement": "time to completely eradicate even the most refractory of mold colonies", "setting": "mold colonies; hypochlorous acid vapors generated and controlled as described", "result": "≤ 24", "unit": "h"}, {"measurement": "hypochlorous acid concentration in the air that must be exceeded for effective cidal action on mold-contaminated materials", "setting": "mold colonies; in air", "result": "exceed 3×10^−7 grams/cubic centimeter"}, {"measurement": "% as HOCl", "setting": "[1]; pH 5.0", "result": 100, "unit": "%"}, {"measurement": "% as HOCl", "setting": "[1]; pH 6.0", "result": 96, "unit": "%"}, {"measurement": "% as HOCl", "setting": "[1]; pH 7.0", "result": 72, "unit": "%"}, {"measurement": "% as HOCl", "setting": "[1]; pH 7.2", "result": 66, "unit": "%"}, {"measurement": "% as HOCl", "setting": "[1]; pH 7.5", "result": 48, "unit": "%"}, {"measurement": "% as HOCl", "setting": "[1]; pH 7.8", "result": 33, "unit": "%"}, {"measurement": "% as HOCl", "setting": "[1]; pH 8.0", "result": 22, "unit": "%"}]}, {"compound": "OCl", "note": "[sodium hypochlorite, reference compound]", "values": [{"measurement": "recommended sanitizing concentration expressed by volume", "setting": "germs on surfaces [2]; corresponds to 200 ppm aqueous solution", "result": "200×10^−6 grams/cc"}, {"measurement": "NaOCl conc. recommended by Ultra Chlorox for mold and mildew stain removal", "setting": "mold and mildew stain; ¾ cup Ultra Chlorox (6.00% NaOCl) plus one gallon of water", "result": 0.0027, "unit": "g/cc"}, {"measurement": "recommended concentration for killing germs on surfaces / sanitation", "setting": "germs on surfaces [3]", "result": 200, "unit": "ppm"}]}]}
